The target in assay [1] is T1, Alpha 1A adrenergic receptor (Homo sapiens, UniProt P35348).
T1 construct: expressed in transfected cells; host or cells: HEK-293
T1 sequence (P35348 1-466): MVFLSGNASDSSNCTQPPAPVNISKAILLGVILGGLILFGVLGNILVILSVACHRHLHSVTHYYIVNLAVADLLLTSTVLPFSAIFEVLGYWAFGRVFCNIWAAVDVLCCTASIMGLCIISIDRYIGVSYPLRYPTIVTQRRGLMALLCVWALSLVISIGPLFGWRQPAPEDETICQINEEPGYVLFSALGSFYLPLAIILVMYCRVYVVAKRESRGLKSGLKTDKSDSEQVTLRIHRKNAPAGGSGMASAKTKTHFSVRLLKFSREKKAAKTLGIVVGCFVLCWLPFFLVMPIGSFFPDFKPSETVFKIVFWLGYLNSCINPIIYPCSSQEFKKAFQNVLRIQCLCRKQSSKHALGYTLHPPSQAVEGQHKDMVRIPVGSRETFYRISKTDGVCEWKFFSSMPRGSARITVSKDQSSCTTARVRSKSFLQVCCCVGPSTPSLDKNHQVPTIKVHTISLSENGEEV
Put plainly: Functional assay in HEK-293 cells (Ca2+ flux). It is filed as cell-based. The procedure:
(§1) Neuro-receptor binding and functional effects of the “E559 polymorph” was examined by analyzing binding affinity [Ki (nM)], functional agonist activity [EC50 (nM)], and functional antagonist activity [IC50 (nM)] against a panel of key receptors in neurophysiological disorders. Binding and functional assays were performed at “E559 polymorph” concentrations of 0.0003, 0.003, 0.01, 0.03, 0.1, 0.3, 1, and 10 μM. In binding assays, cell membrane homogenates, expressing each receptor target, were incubated with the corresponding radio-ligand in absence or presence of several concentration of the “E559 polymorph” compound. The measurement of binding affinity of the “E559 polymorph” is represented in TABLE XIII by Ki (nM) which was calculated as percent inhibition of the binding of a radioactively labeled reference ligand at each receptor. In functional assays the HEK-293 cells expressing each receptor target were suspended in buffer and distribute in microplates and incubated for 30 minutes at room temperature or 37° C. in the presence of buffer alone (basal control), the reference agonist or antagonist, or the “E559 polymorph. Following incubation, the cells were lysed and the appropriate fluorescent probe (Ca2+ flux, cAMP, or IP1) were added for 60 minutes to measure the fluorescence transfer at the appropriate wavelength using a microplate reader. The cellular agonist effect (EC50) was calculated as a percent of control response to a known reference agonist and the cellular antagonist effect (IC50) was calculated as a percent inhibition of control reference agonist response for each receptor.

The target in assay [2] is T2, Alpha 2A adrenergic receptor (Homo sapiens, UniProt P08913).
T2 construct: expressed in transfected cells; host or cells: HEK-293
T2 sequence (P08913 1-465): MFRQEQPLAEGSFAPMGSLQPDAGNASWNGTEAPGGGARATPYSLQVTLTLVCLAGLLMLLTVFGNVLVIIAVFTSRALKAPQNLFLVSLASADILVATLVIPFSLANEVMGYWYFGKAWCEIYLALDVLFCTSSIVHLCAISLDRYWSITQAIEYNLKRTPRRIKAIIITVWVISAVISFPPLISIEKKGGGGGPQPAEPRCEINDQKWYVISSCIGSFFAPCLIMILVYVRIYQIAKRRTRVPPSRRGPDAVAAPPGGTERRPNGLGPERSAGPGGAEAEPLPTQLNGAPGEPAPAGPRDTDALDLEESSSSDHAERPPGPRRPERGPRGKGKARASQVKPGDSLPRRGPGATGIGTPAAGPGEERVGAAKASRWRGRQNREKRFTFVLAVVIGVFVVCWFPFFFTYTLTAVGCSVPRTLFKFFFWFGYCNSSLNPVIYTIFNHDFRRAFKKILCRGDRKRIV
Description: Functional assay in HEK-293 cells (Ca2+ flux). In kind it is cell-based. The procedure: as §1
(Calcium assays in cells follow changes in intracellular calcium, usually with a dye or a luminescent sensor.)

For assay [3], the system named is rat spared nerve injury (SNI) model. Description: Spared nerve injury (SNI) model, von Frey mechanical allodynia. It is filed as in vivo. The method, then:
To evaluate the function the “E559 polymorph” in neuropathic pain, mechanical allodynia test was evaluated by von Frey filament in rat spared nerve injury (SNI) model before and after before and after treatment with the “E559 polymorph”. The SNI model and von Frey filament testing were conducted as previously described (Decosterd & Woolf. Pain, 2000, v87, p149-158). Briefly, Animals with a pain threshold of <15 g, assessed using the Von Frey mechanical allodynia testing, were randomly placed in experimental groups. Each rat group consisted of 10 male rats. On day 7 post-surgery treatment was initiated. […]
The pain response (Von Frey testing) was evaluated on day 0 pre-surgery (labelled as Baseline in FIG. 27), on day 6 post-surgery (labelled as Day 6 Pre grouping in FIG. 27), and at 2, 4, 6, and 24 hours after a single oral dose of either vehicle, or the “E559 polymorph” at 0.3, 1, 3, or 10 mg/kg (labelled as BETR-001 in FIG. 27), or gabapentin at 150 mg/kg. […]
Rat groups were treated (via oral administration) with either vehicle, or the “E559 polymorph” at 20 mg/kg (labelled as BETR-001 in FIG. 28), or gabapentin at 150 mg/kg. […] The pain response (Von Frey testing) was evaluated on day 0 pre-surgery (labelled as Baseline in FIG. 28), on day 6 post-surgery (labelled as Day 6 Pre grouping in FIG. 28), and at 2 hours post-treatment given on days 7, 11, and 15 post-surgery. […]

The target of assay [4] is T3, 5-HT2A receptor (5-HT2AR) (Homo sapiens, UniProt P28223).
T3 construct: expressed in transfected cells; host or cells: HEK-293
T3 sequence (P28223 whole entry): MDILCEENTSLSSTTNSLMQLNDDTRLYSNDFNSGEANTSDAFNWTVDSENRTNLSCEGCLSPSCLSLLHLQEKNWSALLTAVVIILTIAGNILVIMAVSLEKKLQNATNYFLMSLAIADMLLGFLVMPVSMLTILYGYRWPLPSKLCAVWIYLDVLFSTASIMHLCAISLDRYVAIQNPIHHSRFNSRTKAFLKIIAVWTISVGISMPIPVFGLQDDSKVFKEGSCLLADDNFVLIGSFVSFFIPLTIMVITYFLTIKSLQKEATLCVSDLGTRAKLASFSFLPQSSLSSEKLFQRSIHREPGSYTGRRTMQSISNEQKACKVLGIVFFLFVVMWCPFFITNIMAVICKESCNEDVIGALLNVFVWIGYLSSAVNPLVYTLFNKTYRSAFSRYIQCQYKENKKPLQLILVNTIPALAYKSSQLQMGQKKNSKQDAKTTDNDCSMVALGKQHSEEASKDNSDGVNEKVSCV
Put plainly: Radioligand binding, cell membrane homogenates. The method, then:
as §1

Assay [5] addresses T4, Serotonin 7 receptor (5-HT7R) (Homo sapiens, UniProt P34969).
T4 construct: expressed in transfected cells; host or cells: HEK-293
Description: Radioligand binding, cell membrane homogenates. The procedure: as §1

Assay [6] has as its target T5, Beta 2 adrenergic receptor (Homo sapiens, UniProt P07550).
T5 construct: expressed in transfected cells; host or cells: HEK-293
Put plainly: Radioligand binding, cell membrane homogenates. The procedure:
as §1

Assay [7] addresses T6, Beta 1 adrenergic receptor (Homo sapiens, UniProt P08588).
T6 construct: expressed in transfected cells; host or cells: HEK-293
Description: Radioligand binding, cell membrane homogenates. The method, then:
as §1

SMILES strings stand for the structures. Bounds are passed on as bounds.

T4 sequence (P34969 whole entry): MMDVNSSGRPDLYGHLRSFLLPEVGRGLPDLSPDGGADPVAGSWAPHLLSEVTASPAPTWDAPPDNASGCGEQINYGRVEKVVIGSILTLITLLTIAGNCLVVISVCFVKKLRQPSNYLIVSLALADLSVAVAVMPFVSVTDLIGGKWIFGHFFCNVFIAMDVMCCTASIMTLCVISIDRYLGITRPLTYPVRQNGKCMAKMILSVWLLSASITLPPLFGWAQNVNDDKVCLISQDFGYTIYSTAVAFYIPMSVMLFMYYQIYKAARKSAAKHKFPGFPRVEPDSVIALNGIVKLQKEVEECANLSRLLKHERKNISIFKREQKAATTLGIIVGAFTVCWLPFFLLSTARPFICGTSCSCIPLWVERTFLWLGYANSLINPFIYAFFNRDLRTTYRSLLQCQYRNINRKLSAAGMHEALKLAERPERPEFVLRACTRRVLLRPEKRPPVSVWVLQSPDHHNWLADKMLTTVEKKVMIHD
T5 sequence (P07550 whole entry): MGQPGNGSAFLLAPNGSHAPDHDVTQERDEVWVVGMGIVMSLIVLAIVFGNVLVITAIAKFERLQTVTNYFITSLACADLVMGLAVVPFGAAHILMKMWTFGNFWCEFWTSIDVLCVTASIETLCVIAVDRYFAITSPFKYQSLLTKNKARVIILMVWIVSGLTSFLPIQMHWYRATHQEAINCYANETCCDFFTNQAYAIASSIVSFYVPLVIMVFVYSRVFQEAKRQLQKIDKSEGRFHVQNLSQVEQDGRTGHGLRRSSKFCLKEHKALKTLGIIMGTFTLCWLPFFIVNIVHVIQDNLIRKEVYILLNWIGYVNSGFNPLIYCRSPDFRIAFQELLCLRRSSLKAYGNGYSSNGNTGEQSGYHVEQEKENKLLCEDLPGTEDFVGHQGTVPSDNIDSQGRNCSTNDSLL
T6 sequence (P08588 whole entry): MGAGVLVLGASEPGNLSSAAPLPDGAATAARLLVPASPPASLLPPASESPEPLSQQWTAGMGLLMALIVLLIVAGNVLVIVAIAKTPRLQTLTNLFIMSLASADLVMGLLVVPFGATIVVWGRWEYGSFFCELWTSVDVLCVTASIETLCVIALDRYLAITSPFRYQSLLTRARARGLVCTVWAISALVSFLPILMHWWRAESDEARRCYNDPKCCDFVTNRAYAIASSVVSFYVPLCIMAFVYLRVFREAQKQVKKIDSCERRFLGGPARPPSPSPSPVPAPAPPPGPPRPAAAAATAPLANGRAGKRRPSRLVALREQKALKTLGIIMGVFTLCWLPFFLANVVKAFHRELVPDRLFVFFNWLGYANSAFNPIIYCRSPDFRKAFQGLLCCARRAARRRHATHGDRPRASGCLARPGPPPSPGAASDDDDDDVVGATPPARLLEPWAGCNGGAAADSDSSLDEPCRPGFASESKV

For the compound `CCN(CC)C(=O)[C@@H]1C=C2c3cccc4[nH]c(Br)c(c34)C[C@H]2N(C)C1` [E559, (5R, 8R)-2-Bromo-9,10-didehydro-N,N-diethyl-6-methylergoline-8-carboxamide hemi-D-tartrate], the EC50 is 51 nM in assay [1] and over 10000 nM in assay [2]. Also, the IC50 in assay [1] is over 10000 nM; in assay [2], 260 nM. The “inhibition of mechanical allodynia, repeated dosing” value in assay [3] (oral 20 mg/kg on days 7, 9, 11, 13 and 15 post-surgery) is reported as “enhanced the inhibition effect on mechanism allodynia to levels comparable to the gabapentin positive control”. Moreover, the “inhibition of neuropathic pain (von Frey), single dose” value in assay [3] (single oral dose 0.3, 1, 3 or 10 mg/kg on day 7 post-surgery, 2 and 4 hours post administration) was “significant dose-dependent inhibition of neuropathic pain”. The Ki in assay [4] was 2.2 nM; in assay [5] it was 3.81 nM; in assay [6], 88 nM; in assay [7], 109 nM.

By EC50 is commonly meant the concentration giving half of the maximal effect. Low readings indicate greater potency, high ones weaker potency. As usually defined, the IC50 is the concentration that inhibits the measured activity by half. The Ki is the dissociation constant of the complex between target and ligand, obtained from inhibition or displacement. A lower Ki goes with tighter binding.

The values above are taken from patent publication US12331051B2 (priority 2021, dated 2025).
